{"source": "PubChem BioAssay (NCI)", "assay_in_all_cases": "inhibition of tumour cell growth, NCI panel, 48 h", "key": {"SK-MEL-2 melanoma": {"test_system": "SK-MEL-2 melanoma"}, "HL-60(TB) leukemia": {"test_system": "HL-60(TB) leukemia"}, "K-562 leukemia": {"test_system": "K-562 leukemia"}, "SNB-19 CNS": {"test_system": "SNB-19 CNS"}, "CCRF-CEM leukemia": {"test_system": "CCRF-CEM leukemia"}, "EKVX NSCLC": {"test_system": "EKVX NSCLC"}, "MDA-MB-435": {"test_system": "MDA-MB-435"}, "MDA-MB-231 breast": {"test_system": "MDA-MB-231 breast"}, "T-47D breast": {"test_system": "T-47D breast"}, "SF-539 CNS": {"test_system": "SF-539 CNS"}, "A498 renal": {"test_system": "A498 renal"}, "RPMI-8226 leukemia": {"test_system": "RPMI-8226 leukemia"}, "NCI-H522 lung": {"test_system": "NCI-H522 lung"}, "ACHN renal": {"test_system": "ACHN renal"}, "MOLT-4 leukemia": {"test_system": "MOLT-4 leukemia"}, "HOP-62 NSCLC": {"test_system": "HOP-62 NSCLC"}, "OVCAR-5 ovarian": {"test_system": "OVCAR-5 ovarian"}, "HCC-2998 colon": {"test_system": "HCC-2998 colon"}, "NCI-H23 lung": {"test_system": "NCI-H23 lung"}, "COLO 205 colon": {"test_system": "COLO 205 colon"}, "HOP-92 NSCLC": {"test_system": "HOP-92 NSCLC"}, "HCT-15 colon": {"test_system": "HCT-15 colon"}, "SR leukemia": {"test_system": "SR leukemia"}, "NCI-H460 lung": {"test_system": "NCI-H460 lung"}, "HT29 colon": {"test_system": "HT29 colon"}, "UO-31 renal": {"test_system": "UO-31 renal"}, "MALME-3M melanoma": {"test_system": "MALME-3M melanoma"}, "HS 578T breast": {"test_system": "HS 578T breast"}}, "note": "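Compound exposure: 48 hours, 5 concentrations, 96-well plates. The concentration for 50% growth inhibition is given as GI50. TGI: concentration producing complete growth inhibition.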", "data": [{"smiles": "[2H]c1nc(C)nc([2H])c1-c1cc(NC[C@@H](C)c2cccc3c(C(=O)NC)ccnc23)ncn1", "values": [{"measurement": "TGI", "setting": "SK-MEL-2 melanoma", "value": "> 100", "unit": "µM"}, {"measurement": "GI50", "setting": "HL-60(TB) leukemia", "value": "> 100", "unit": "µM"}, {"measurement": "TGI", "setting": "HL-60(TB) leukemia", "value": "> 100", "unit": "µM"}, {"measurement": "GI50", "setting": "K-562 leukemia", "value": 80.6, "unit": "µM"}, {"measurement": "TGI", "setting": "K-562 leukemia", "value": "> 100", "unit": "µM"}, {"measurement": "GI50", "setting": "SNB-19 CNS", "value": "> 100", "unit": "µM"}, {"measurement": "TGI", "setting": "SNB-19 CNS", "value": "> 100", "unit": "µM"}, {"measurement": "GI50", "setting": "CCRF-CEM leukemia", "value": 65.1, "unit": "µM"}, {"measurement": "TGI", "setting": "CCRF-CEM leukemia", "value": "> 100", "unit": "µM"}, {"measurement": "GI50", "setting": "EKVX NSCLC", "value": "> 100", "unit": "µM"}, {"measurement": "TGI", "setting": "EKVX NSCLC", "value": "> 100", "unit": "µM"}, {"measurement": "GI50", "setting": "MDA-MB-435", "value": 32.7, "unit": "µM"}, {"measurement": "TGI", "setting": "MDA-MB-435", "value": "> 100", "unit": "µM"}, {"measurement": "GI50", "setting": "MDA-MB-231 breast", "value": "> 100", "unit": "µM"}, {"measurement": "TGI", "setting": "MDA-MB-231 breast", "value": "> 100", "unit": "µM"}, {"measurement": "GI50", "setting": "T-47D breast", "value": 29, "unit": "µM"}, {"measurement": "TGI", "setting": "T-47D breast", "value": "> 100", "unit": "µM"}, {"measurement": "GI50", "setting": "SF-539 CNS", "value": "> 100", "unit": "µM"}, {"measurement": "TGI", "setting": "SF-539 CNS", "value": "> 100", "unit": "µM"}, {"measurement": "GI50", "setting": "A498 renal", "value": "> 100", "unit": "µM"}, {"measurement": "TGI", "setting": "A498 renal", "value": "> 100", "unit": "µM"}, {"measurement": "GI50", "setting": "RPMI-8226 leukemia", "value": 78.5, "unit": "µM"}, {"measurement": "TGI", "setting": "RPMI-8226 leukemia", "value": "> 100", "unit": "µM"}, {"measurement": "GI50", "setting": "NCI-H522 lung", "value": 46.4, "unit": "µM"}, {"measurement": "TGI", "setting": "NCI-H522 lung", "value": "> 100", "unit": "µM"}, {"measurement": "GI50", "setting": "ACHN renal", "value": "> 100", "unit": "µM"}, {"measurement": "TGI", "setting": "ACHN renal", "value": "> 100", "unit": "µM"}, {"measurement": "GI50", "setting": "MOLT-4 leukemia", "value": "> 100", "unit": "µM"}, {"measurement": "TGI", "setting": "MOLT-4 leukemia", "value": "> 100", "unit": "µM"}, {"measurement": "GI50", "setting": "HOP-62 NSCLC", "value": "> 100", "unit": "µM"}, {"measurement": "TGI", "setting": "HOP-62 NSCLC", "value": "> 100", "unit": "µM"}, {"measurement": "GI50", "setting": "OVCAR-5 ovarian", "value": "> 100", "unit": "µM"}, {"measurement": "TGI", "setting": "OVCAR-5 ovarian", "value": "> 100", "unit": "µM"}, {"measurement": "GI50", "setting": "HCC-2998 colon", "value": "> 100", "unit": "µM"}, {"measurement": "TGI", "setting": "HCC-2998 colon", "value": "> 100", "unit": "µM"}, {"measurement": "GI50", "setting": "NCI-H23 lung", "value": "> 100", "unit": "µM"}, {"measurement": "TGI", "setting": "NCI-H23 lung", "value": "> 100", "unit": "µM"}, {"measurement": "GI50", "setting": "COLO 205 colon", "value": "> 100", "unit": "µM"}, {"measurement": "TGI", "setting": "COLO 205 colon", "value": "> 100", "unit": "µM"}, {"measurement": "GI50", "setting": "HOP-92 NSCLC", "value": "> 100", "unit": "µM"}, {"measurement": "TGI", "setting": "HOP-92 NSCLC", "value": "> 100", "unit": "µM"}, {"measurement": "GI50", "setting": "HCT-15 colon", "value": "> 100", "unit": "µM"}, {"measurement": "TGI", "setting": "HCT-15 colon", "value": "> 100", "unit": "µM"}, {"measurement": "GI50", "setting": "SR leukemia", "value": 63.1, "unit": "µM"}, {"measurement": "TGI", "setting": "SR leukemia", "value": "> 100", "unit": "µM"}, {"measurement": "GI50", "setting": "NCI-H460 lung", "value": "> 100", "unit": "µM"}, {"measurement": "TGI", "setting": "NCI-H460 lung", "value": "> 100", "unit": "µM"}, {"measurement": "GI50", "setting": "HT29 colon", "value": "> 100", "unit": "µM"}, {"measurement": "TGI", "setting": "HT29 colon", "value": "> 100", "unit": "µM"}, {"measurement": "GI50", "setting": "UO-31 renal", "value": "> 100", "unit": "µM"}, {"measurement": "TGI", "setting": "UO-31 renal", "value": "> 100", "unit": "µM"}, {"measurement": "GI50", "setting": "MALME-3M melanoma", "value": "> 100", "unit": "µM"}, {"measurement": "TGI", "setting": "MALME-3M melanoma", "value": "> 100", "unit": "µM"}, {"measurement": "GI50", "setting": "HS 578T breast", "value": "> 100", "unit": "µM"}, {"measurement": "TGI", "setting": "HS 578T breast", "value": "> 100", "unit": "µM"}]}]}
